This is an account of results in patent US20100166851A1, “Composition having lipolytic activity, production method thereof and use of the composition” (NUTRACEUTIC ET BUSINESS CONSULTING, priority 2007, published 2010).

For the assay, the system named is human adipocytes. In words: release of Not Esterified Fatty Acids (NEFA) by human adipocytes in suspension (ex-vivo lipolysis). It counts as cell-based. Particulars: for NEFA: human adipocytes, 2 hours at 37° C., n=3; for % of the control: NEFA released, 2 hours. The method, then: This experiment has been conducted on human adipocytes isolated from an abdominal plasty of a donor. […] To 540 uL of a suspension of adipocytes in a test medium milieu have been added 60 μL of compound to be tested, and the mixtures have been incubated at 37° C., under stirring, for 2 hours. A final concentration of theophylline in the tested mixture of 1 mM was maintained, starting from a stock solution of 10^−2 M in test medium. Likewise, a final concentration of isoproterenol in the tested mixture of 1 μM was maintained, starting from a stock solution of […] in test medium. A final concentration of caffeine in the tested mixture of 0.5 mM was also maintained, starting from a stock solution of 5 mM in test medium. […] Since the composition according to the invention is a powder, it was diluted in DMSO, on the one hand, and in test medium, on the other hand. The stock solution prepared with DMSO was prepared at 10 mg/mL, i.e. 1% (w/v), for a final concentration of the composition according to the invention in solution in DMSO in the tested mixture of 0.01%. […] A control comprising only the adipocytes in test medium was also prepared. A total of 10 doses were prepared from 10 different fractions with the compound added or not. […] The dose was prepared conventionally by means of a NEFA-C measuring kit. The measured data were processed statistically. Intergroup comparisons were carried out through variance analysis (ANOVA) by means of the Dunnet multiple comparison test.

Regarding `CC(C)NCC(O)c1ccc(O)c(O)c1` (stereo not drawn) [Isoproterenol, isoproterenol], where the note is “1.0 μM”, the NEFA was 377 µM and the “% of the control” value stood at 1048%. The “lipolysis stimulation, factor with respect to the control” value (1 μM, p<0.01) is on record as 10.

Take `Cn1c(=O)c2c(ncn2C)n(C)c1=O` [Caffeine, caffeine]: under “0.5 mM”, the NEFA turned out to be 339 µM and the “% of the control” value is given as 941%. Further, where the note is “0.5 mM, p<0.01”, the “release of NEFA, factor with respect to the control” value is on record as “about 9.5”.

With `Cn1c(=O)c2[nH]cnc2n(C)c1=O` [Theophylline, theophylline], where the note is “1.0 mM”, the NEFA stood at 381 µM and the “% of the control” value is reported as 1057%. Further, the “lipolysis stimulation, factor with respect to the control” value (1 mM, p<0.01) came to 10.
